Consider 7 compounds from US3987055A, “Azasteroids compounds and derivatives” (The Board of Regents for the Oklahoma Agricultural & …, priority 1974, dated 1976).

The conditions of series [1]: cited from earlier work.
The next series concerns Bacillus subtilis. To be noted: as low as; cited from earlier work.
The conditions of series [2]: oral, rats; cited from earlier work.
In series [3] the test system is sarcoma 180 ascitis cells. Put plainly: antitumor activity, sarcoma 180 ascites in mice, survival. The series is classed as in vivo, mice (Swiss albino CD-1 female). To be noted: i.p., 5 injections. The protocol:
The test system utilized involved Swiss albino CD-1 female mice weighing 25-27 grams which were injected (i.p.) with 1 × 10^6 viable sarcoma 180 ascitis cells. Chemotherapy was initiated 24 hours post-injection with a protocol of five intra-peritonaeal injections at 24 hour intervals.
Animals were weighted at 24 hour intervals and the survival time recorded for each test group.

The subject of series [4] is rat testis tubules. Put plainly: lysine-U-14C incorporation into protein by rat testis tubules in vitro. The series is classed as cell-based. As to the method:
(§1) For these investigations the compounds were diluted in a minimal amount of ethanol and further diluted in saline (0.85%) so that the final concentration was 1 mg/ml. The compounds were placed in solution and gassed under N2 and stored at 5° C until used 2 days later for the in vitro incubation studies. Details of the in vitro incubation procedures may be found in Endocrinology 89:791-800 (1971).
The effects of the compounds on the incorporation of lysine -U-^14 C into trichloroacetic (TCA) precipitable protein of rat testes was investigated by incubating about 200 mg of teased testis tubules from mature rats in a 25 ml Erlenmeyer flask containing 3 ml of Krebs Ringer bicarbonate buffer (pH 7.4), L-lysine-U-^14 C (0.5 μCi; 0.1mM), glucose (10 mM) and 0.25 ml of the azasteroid to be tested. The flasks were incubated for 1 hour at 33° C under 95% O2 : 5% CO2 and the TCA precipitable protein was isolated and an aliquot used to measure radioactivity.
CPM = counts per minute. All compounds were tested in a concentration of […]

For series [5], the system named is cells. Put plainly: uptake or incorporation of L-serine-3-14C or uracil-2-14C. The series is classed as cell-based. To be noted: 60 μg/ml. The text has this:
(§2) Thus the compound can be used to destroy undesirable cells without damaging normal cells.

Series [6] can be described thus: effects on testis function: body, testis and seminal vesicle weight. In kind it is in vivo, mice (ICR-Swiss adult male). To be noted: average; 0.2 mg per day s.c., 10 days. As to the method: The compounds as shown in Table 7 were dissolved in a minimal amount of ethanol and diluted in sesame oil (1 mg/ml). After dilution, samples were stored at 5° C in the dark and flushed with N2 every 24 hours. The compounds were injected subcutaneously into adult male mice for a period of 10 days. Each mouse injected received a total dose of 2 mg over the 10 day period or 0.2 mg per day. The mice were random bred males of the ICR-Swiss strain and were used in the study when they reached 75±2 days of age. Mice were maintained in air-conditioned and light-controlled (14 hour light/24 hour) animal quarters and provided with lab food and water ad libitum. Animals were necropsied 24 hours after the last injection. Testes and seminal vesicles were excised, trimmed of adhering tissue and weighed fresh at the nearest one-tenth milligram.

The next series deals with Escherichia coli B. Put plainly: inhibition of initiation of growth of Escherichia coli B. To be noted: E. coli B. In kind it is cell-based. The text has this:
(§3) The hydroxybenzindazole (compound 2) delayed (inhibited) the initiation of growth of selected unrelated bacteria when incorporated in the growth medium. The inhibition was dependent on the concentration of the test compound and the nature of the organism. […] Pseudomonas fluorescens NND was not sensitive to the hydroxybenzindazole in the concentrations tested.

The subject of a further series is Bacillus subtilis W23. Put plainly: inhibition of growth of Bacillus subtilis W23 in growth medium. The series is classed as cell-based. As to the method: as §3
The influence of cell mass on the antimicrobial potential of the hydroxybenzindazole was determined using B. subtilis W23. […] Thus, a critical number of molecules must react with the cell to produce inhibition. Experiments were conducted to determine if Mg^+^+, which is an important component of cell membranes, affected the inhibition. Cells of B. subtilis W23 were exposed to 10^-^3 M MgCl2 simultaneously with the test compound or for as long as 15 minutes prior to addition of the hydroxybenzindazole.

Another series has as its system P. fluorescens NND. Kind of series: lysis of cells of P. fluorescens NND. The series is classed as cell-based, Pseudomonas fluorescens NND. The protocol:
The increased lytic rate was not observed when the benzindazole was added after the cells had reached the maximum stationary phase (10 hours); thus, the compounds must be present during active growth for the cells to show the lytic response. […] This is extremely important in controlling or destroying growth of undesirable cells since if the cells rupture they cannot possibly grow and divide at any future time.

For series [7], the system named is osmoplasts (osmotically sensitive cells) of B. subtilis W23. Put plainly: lysis of osmoplasts of B. subtilis W23. The series is classed as cell-based. To be noted: stabilized in 0.35 M sucrose.
Text: as §2

Series [8] deals with cells. Put plainly: binding or adsorption to the cell. The settings on record: incubated with 20 μg.
Text: as §2

Series [9] deals with rat testis tubules. Kind of series: glucose oxidation (glucose-U-14C) by rat testis tubules in vitro. In kind it is cell-based. As to the method:
as §1
The effects of these compounds on glucose oxidation by testis tubules was examined by incubating about 200 mg of teased testis tubules from mature rats in a 25 ml Erlenmeyer flask containing 3 ml of Krebs Ringer bicarbonate buffer (pH 7.4), D-glucose-U-^14 C (0.5 μCi; 10mM) and 0.25 ml of the azasteroid (1 mg/ml) to be tested. The flasks were incubated for 2 hours at 33° C under 95% O2 :5% CO2. The reaction was terminated by adding 0.25 ml of 5 N H2 SO4. Carbon dioxide was trapped in 0.25 ml of hydroxide of Hyamine. The radioactivity present in the Hyamine was determined by liquid scintillation spectrometry. This table includes a detailed summary of the results obtained and an average for each compound. […] Thus, the compounds have potential for antifertility activity in the control of wild rodent populations and possibly stray animals such as dogs and cats.
CPM = counts per minute. Glucose-U-^14 C activity was 0.5 millicurie.
All compounds were tested in a concentration of 250 mg per flask.

Series [10] concerns Pseudomonas fluorescens NND. Kind of series: inhibition of growth of Pseudomonas fluorescens NND. The series is classed as cell-based. To be noted: concentrations tested; P. fluorescens NND; listed as hydroxybenzindazole.
Text: as §3

The next series deals with B. subtilis W23. Kind of series: antimicrobial activity in combination with selected antibiotics. The series is classed as cell-based. The protocol:
Several antibiotics act at the cell surface. The antimicrobial activity of the hydroxybenzindazole in combination with selected antibiotics was measured.
Both Polymyxin (Pfizer, Inc.) and Circulin (Upjohn Co.) are surface active compounds thought to cause disorganization of the cell membrane leading to a loss of intracellular components. The enhanced antimicrobial activity observed with the combination of hydroxybenzindazole and antibiotics denotes a more pronounced distortion in the cell surface. Thus, much lower concentrations of the compounds can be used in medicinal applications providing an opportunity for toxic compounds to have greater medicinal applicability and use.
Failure of the mixture of hydroxybenzindazole and chloramphenicol to show an enhanced inhibition of growth could be correlated with the internal site of action of chloramphenicol, which is blockage of the binding of the 30s and 50s ribosomal subunits.

For series [11] the following is noted: cited from earlier work. This is another data set of the same source.
The mark [12] stands for this setting: individual flask, 250 mg per flask (so in the source), 1 hour, 33° C.
[13] abbreviates: individual flask, 250 mg per flask (so in the source), 2 hours, 33° C.

Where “and” joins values, the source holds several entries; their conditions need not be identical. Equal entries are not always repeated. Entries after “also recorded” stand apart in the source; their conditions may differ. Numbered stars: 1 amine (or outer) side, 2 acyl side, 3 side chain; on linkers, the order of the positions; unused ones are H or OH. Bridge positions count the residues as written; N and C are the ends. Square brackets hold non-standard residues; d marks the D form. Peptide text beside a SMILES is read from it. I, II: the chains in the order shown. Actinocin(9to1) = Cc1c2oc3c(C)ccc(C(=O)[*:1])c3nc-2c(C(=O)[*:2])c(N)c1=O; NMeV = CN[C@H](C(=O)O)C(C)C; Sar = CNCC(=O)O

Regarding `COc1ccc2c(c1)CC[C@@H]1[C@@H]2CC[C@]2(C)C(=O)NC[C@@H]12` [0-methyl ether of 16-azaestrone], the “estrogenic activity relative to parent estrone” value in series [1] is on record as “less than 1.01%”.

Regarding `CC(C)CCC[C@@H](C)[C@H]1CC[C@H]2[C@@H]3CC=C4N(CC[N+](C)(C)C)C(=O)CC[C@]4(C)[C@H]3CC[C@]12C` [4-Dimethylaminoethyl-4-aza-5-cholesten-3-one methiodide], the “concentration that irreversibly inhibits growth of Bacillus subtilis cultures” value in the series with Bacillus subtilis is 1 µg/mL.

For the compound `C[C@]12Cc3cn[nH]c3C[C@@H]1CC[C@@H]1[C@@H]2CC[C@@]2(C)[C@H]1CC[C@]2(C)O` [17-Hydroxy-17 α-methylandrostano[3,2]-μ pyrazole], in series [2], the “antiovulatory activity relative to norethisterone” value is on record as “one-fifth of that observed for norethisterone”.

On to `Cc1c2oc3c(C)ccc(C(=O)N[C@@H]4C(=O)N[C@H](C(C)C)C(=O)N5CCC[C@H]5C(=O)N(C)CC(=O)N(C)[C@@H](C(C)C)C(=O)O[C@@H]4C)c3nc-2c(C(=O)N[C@@H]2C(=O)N[C@H](C(C)C)C(=O)N3CCC[C@H]3C(=O)N(C)CC(=O)N(C)[C@@H](C(C)C)C(=O)O[C@@H]2C)c(N)c1=O` [Actinomycin D, reference compound] (I: T[dV]P[Sar][NMeV] / II: T[dV]P[Sar][NMeV]; ester I:1-I:C, II:1-II:C; linker I:N-II:N via Actinocin(9to1)), for which the “Survival ratio T/C (survival time of test animal / control animal)” value in [3] (4 μg/injection, total 20 μg) is 1.9.

For `Oc1ccc2c(c1)CCc1cn[nH]c1-2` [Compound 2, 4,5-Dihydro-1H-benz[g]indazol-7-ol], in the series on rat testis tubules [4] (average of two flasks), the “AVERAGE OF TWO FLASK lysine incorporation” value was determined as 814 CPM/100 mg tissue. The “protein synthesis by teased testis tubules” value in the series with rat testis tubules [4] (in words) is reported as “depress protein synthesis”. In addition, in the series with rat testis tubules [4] (setting [12]), the “lysine incorporation into protein per 100 mg” value was 1,000 CPM/100 mg and 629 CPM/100 mg; the “lysine incorporation into protein per flask” value is 2,000 CPM/FLASK and 1,200 CPM/FLASK. Besides, in the series with cells [5], the “inhibition of uptake or incorporation of L-serine-3-14C or uracil-2-14C” value is “did not inhibit uptake or incorporation”. Also, in series [6], the “Body Weight” value was 35.7 g, the “Mg Testes Per g Body Wt.” value is 6.73 Mg per g, the “Seminal Vesicle weight” value came to 87.3 mg and the “Testes Paired weight” value is recorded as 242.0 mg. Also, the “growth inhibition at lower concentration” value in the series on Escherichia coli B (46 μg/ml) is “only slight inhibition”. Further, the “increased lag in the initiation of growth” value in the series on Escherichia coli B (86 μg/ml) is reported as “approximately 3 hours”. In addition, the “growth inhibition at lower concentration” value with Bacillus subtilis W23 (46 μg/ml, B. subtilis W23) is “only slight inhibition”. The “increased lag in the initiation of growth” value with Bacillus subtilis W23 (86 μg/ml, B. subtilis W23) was “approximately 3 hours”. The “influence of Mg++ on the inhibition” value with Bacillus subtilis W23 (10^-3 M MgCl2, simultaneously or up to 15 minutes prior) is “did not influence the inhibition”. The “influence of cell mass on extent of inhibition” value in the series with Bacillus subtilis W23 (B. subtilis W23, increasing inoculum cell mass) is “the extent of inhibition was diminished as the cell mass of the inoculum was increased”. Also, the “dependence of extent of lysis on concentration” value in the series on P. fluorescens NND (P. fluorescens NND) is listed as “proportional to the benzindazole concentration”. In the series on P. fluorescens NND (added after 10 hours), the “increased lytic rate when added after maximum stationary phase” value is recorded as “not observed”. For the same compound, the cell population lysed result in the series with P. fluorescens NND (cells grown in presence of compound) is given as “approximately 95%”. Moreover, in series [7], the lysis of osmoplasts entry is reported as “did not produce lysis”. The “amount bound or adsorbed to the cell” value with cells [8] is on record as “approximately 1 μg”. For the same compound, in the series with rat testis tubules [9] (average of flasks), the AVERAGE glucose oxidation is reported as 3,756 CPM/100 mg TISSUE. For the same compound, the “depression of glucose oxidation in vitro” value with rat testis tubules [9] (in words) was “depressed glucose oxidation in vitro more than compounds 4 c and 11b”. Further, in the series with rat testis tubules [9] (setting [13]), the “GLUCOSE OXIDATION per 100 mg” value is 3,354 CPM/100 mg and 4,159 CPM/100 mg; the “GLUCOSE OXIDATION per flask” value was 6,876 CPM/FLASK and 8,557 CPM/FLASK. The “% DEVIATION FROM CONTROL, glucose oxidation” value with rat testis tubules [9] (versus saline, 120 min) was -63.6%. In addition, the “sensitivity / influence on growth” value in series [10] is recorded as “not sensitive; also recorded: did not influence the growth”. The “inhibition of growth, tested separately” value in the series on B. subtilis W23 (alone, B. subtilis W23) was “very slight inhibition of growth”. For the same compound, the “enhanced inhibition in combination with chloramphenicol” value with B. subtilis W23 (with chloramphenicol) is recorded as “enhanced inhibition was not observed”. Moreover, in the series on B. subtilis W23 (with penicillin, B. subtilis W23), the “inhibition of growth in combination with penicillin” value is given as “pronounced inhibition”.

On to `Oc1ccc2c3c(ccc2c1)-c1[nH]ncc1CC3` [Compound 11a, 10,11-Dihydro-3H-naphth[1,2-g]indazol-7-ol], for which the “Survival ratio T/C (survival time of test animal / control animal)” value in series [3] (0.8 μg/injection, total 4 μg) is 1.0.

Regarding “(3,2-c)-2'-phenylpyrazole of 9α-fluoro-6,16α-dimethyl-Δ^6 -hydrocortisone”, the “anti-inflammatory potency relative to hydrocortisone” value in [11] is “over 2000 times”.
